Converted amounts (≈) assume the structure as drawn.
Experiments:
[1] = Solubility of oAB in 1-dodecanol (solid liquid equilibrium); format: physicochemical
Description: The solubility of oAB in dodecanol was tested with increasing temperature.

E. coli = experiment: Shake flask growth (OD600) with supplementation of toxic substances; format: cell-based, Escherichia coli K12; conditions: already low concentrations
Description: Several strains commonly used industrial biotechnology were investigated regarding their natural tolerance towards oAB and to organic solvents in question for later product extraction (e.g. 1-dodecanol or octanol). Furthermore, the influence of the used pH value was investigated. It was known from previous experiments that at least for E. coli the toxicity of aromatic compounds depends strongly on the pH value, probably because protonated acids can much more efficiently penetrate the cell membrane and accordingly their toxicity rises severely. The extraction of oAB in an organic phase is supposed to work best at low pH values, close to the isoelectric point of oAB. The most relevant host strains considered were: Escherichia coli K12, Corynebacterium glutamicum DSM 20300 (=ATCC 13032), Pseudomonas putida KT2440, Bacillus subtilis subsp. 168, Saccharomyces cerevisiae DSM 70449, and Pichia pastoris X33 (DSM 70382).
To investigate the chosen strains towards the mentioned characteristics shake flasks and small scale fermentation experiments were performed and the organisms were supplemented with the toxic substances (aminobenzoates, solvents) at differed concentrations, different pH values, and the behaviour of the strains was studied. […]

[2] = Solubility of oAB in fermentation broth slurry; format: physicochemical; conditions: fermentation broth of Corynebacterium glutamicum; room temperature, pH 4.5, fermentation broth
Description: An industrial sugar source was used for fermentation of Corynebacterium glutamicum. 100 ml of the broth with a content of 21.5 g/L glucose, 3.7 g/L lactate was mixed with 10 g anthranilic acid in a 250 ml laboratory reactor. […] Afterwards 9.12 g NaOH (32%) were added in 4 portions until a solution was present. […] Following […] HCl (37%) were added within 1 hour. By dosing of HCl first nucleation took place as from a pH-value of 5.8. The number of crystals increased during dosing. […] Afterwards the slurry was stirred for 1 hour. Finally the slurry was filtered.

[3] = test system: Corynebacterium glutamicum; experiment: Small-scale fermentation (1 L fermenters, pH 7, glucose fed) with supplementation; format: cell-based; conditions: pH 7, fermenter
Description: The results obtained in the shake flask experiments with C. glutamicum were reproduced in small-scale fermenters (FIG. 21). […]. The glucose-fed allowed the strain to grow to higher cell densities.
. This confirmed the results obtained in shake flasks (see FIG. 22). […] It was concluded that 1-dodecanol is a suitable oAB extraction solvent.
In a further experiment the concentration of oAB was increased to investigate the effect on the C. glutamicum strain. The four fermenters were hereto supplemented with 0 g/L, 15 g/L, 35 g/L and 80 g/L of oAB. […] The rest of the cultivation conditions was kept as described above. […] Cultures supplemented with 15 g/L oAB have shown an extensive lag-phase over 34-48 h before growth was recovered and cells entered the exponential phase (see FIG. 24). An oAB degradation during fermentation was again excluded by HPLC measurements of culture supernatants (data not shown).

**Q.** For `Nc1ccccc1C(=O)O` [oAB, 2-aminobenzoic acid], which “solubility in 1-dodecanol” value ([1]; 3 wt %, room temperature) is on record?
**A.** The value was “perfectly soluble”.

**Q.** What about the “solubility of oAB in 1-dodecanol (concentration)” value (from here on “solubility of oAB in 1-dodecanol”) ([1]; 40 ° C.) of the same molecule?
**A.** Its value is 4.88 wt %.

**Q.** What about the “solubility of oAB in 1-dodecanol” value ([1]; 68 ° C.) of the same molecule?
**A.** The value was 13.10 wt %.

**Q.** And the “solubility of oAB in 1-dodecanol” value ([1]; 93 ° C.)?
**A.** Its value is 23.05 wt %.

**Q.** What about the “solubility of oAB in 1-dodecanol” value ([1]; 111 ° C.) of the same molecule?
**A.** Its value is 35.34 wt %.

**Q.** And the “solubility of oAB in 1-dodecanol” value ([1]; 119 ° C.)?
**A.** Its value is 44.22 wt %.

**Q.** And the “solubility of oAB in 1-dodecanol” value ([1]; 123 ° C.)?
**A.** The value was 50.93 wt %.

**Q.** What about the toxicity of o-aminobenzoate (E. coli) of the same molecule?
**A.** Its toxicity of o-aminobenzoate is “toxic”.

**Q.** And the solubility [2]?
**A.** The solubility was about 4500 µg/mL (≈ 32.8 mM).

**Q.** What about the “growth (OD600)” value ([3]; 7 g/L) of the same molecule?
**A.** The value was “prolonged lag-phase but finally same cell densities were reached”.

**Q.** What about the “lag-phase before growth was recovered” value ([3]; 15 g/L oAB (ammonium salt)) of the same molecule?
**A.** Its value is 34 to 48 h.

**Q.** What about the “growth (OD600)” value ([3]; 35 g/L oAB (ammonium salt)) of the same molecule?
**A.** The value was “growth inhibition”.

**Q.** What about the “growth (OD600)” value ([3]; 80 g/L oAB (ammonium salt), over 54 hours) of the same molecule?
**A.** The value was “dying (lysis) of the cells”.

From US10731187B2, “Recombinant strain producing O-aminobenzoate and fermentative production of aniline from renewable resources via 2-aminobenzoic acid” (Covestro Deutschland AG, priority 2014, dated 2020)
